Like-named read-outs stand apart in the source and are kept apart here.
Key:
[1] = primary salt formation assessment: storage at 40° C./75% RH for ca. 24 h, XRPD; format: physicochemical; conditions: solids stored at 40° C./75% RH for ca. 24 h
Method: Solids were dried at 40° C. under vacuum for ca. 24 h, and then re-analysed by XRPD.
Solids were then stored at 40° C./75% RH for ca. 24 h, and then re-analysed by XRPD.

[2] = primary salt formation assessment: solution degradation (HPLC of mother liquor); format: physicochemical; conditions: salt formation experiment
Method: HPLC analysis was carried out to determine the chemical purity of the mesembrine and to provide information on any impurities. The following conditions were use: • Column: Waters Acquity BEH 018 1.7 μm 150 mm×2.1 mm • Column Temperature: 33° C. • Autosampler Temperature: 25° C. • UV Wavelength: 280 nm • Injection Volume: 5 μL • Flow Rate: 0.29 mL/min • Mobile Phase A: 0.1% NH4 in H2O • Mobile Phase B: Methanol:Water 20:80% v/v • Gradient Program: […]
The experiments were then temperature cycled between the upper temperature limit (specified in Table 3.1) and 5° C. at 0.1° C./min, with 1 h holds at the upper temperature limit, and 5° C. for ca. 72 h.
After temperature cycling, solids were isolated from experiments at 5° C., and analysed by XRPD.

[3] = DVS analysis (water uptake); format: physicochemical; conditions: for hygroscopicity: from DVS water uptake at 80% RH
[4] = VH-XRPD analysis (variable humidity); format: physicochemical
[5] = salt hydration study in methanol/water of known water activity; format: physicochemical; conditions: 25° C.; for Observation: 24 h; for Solubility: methanol/water, all levels of water activity (aw 0.2, 0.5, 0.8)
Method: Approximately 20 mg of the hydrochloride (HCl), besylate and fumarate salts were weighed into 3×2 mL push cap vials. 0.05-0.1 mL of relevant solvent system was added to each vial, at 25° C.
Methanol/water solvent systems (99:1, 75:25, 33:67) of known water activity (aw 0.2, 0.5 and 0.8 respectively) were used. The experiment was stirred for ca. 24 h. After 24 h, any slurries were centrifuged, and the solids analysed by XRPD.
An additional hydration study was required in order to repeat the salt hydration studies, for the HCl salt and the besylate salt due to dissolution in the first set of experiments:
For each salt, approximately 10 mg was weighed into 4×2 mL vials and a stirrer bar added. 10 μL of each solvent system was added, at 25° C. The experiments were stirred for 24 h, and any solids recovered were then analysed by XRPD.

[6] = format: physicochemical; conditions: for HPLC Conc.: 25° C., 24 h, with respect to mesembrine; for HPLC Purity: solution/mother liquor
Method: Approximately 20 mg of each salt was weighed into 3×2 mL push cap vials. 0.1 mL of buffer (Chloride pH 1.2; Acetate pH 4.5; Phosphate pH 6.8) was added to each vial, at 25° C. The experiment was stirred for ca. 24 h. After 2 h, the pH was measured and adjusted if required. After 24 h a final pH measurement was taken. Any slurries were centrifuged and the solids analysed by XRPD.

[7] = 1-week stability study; format: physicochemical; conditions: for Observation: Sigma Aldrich colour chart
Method: A 1-week stability study was performed for hydrochloride salt Pattern 1, besylate salt Pattern 1, fumarate salt Pattern 1+4, and fumarate salt Pattern 4.
Approximately 5 mg of the salt was weighed into 3×2 mL push cap vials. The 2 mL vials were then each placed inside a 20 mL vial, with the lids on or off as required. The solids were placed under the required stability conditions for 1 week at the following three conditions: 40° C./75% RH (open); 80° C. (closed); Ambient light, temperature and humidity (open)
After 1-week, visual observations were noted, then the solids were analysed by XRPD and HPLC.

[8] = HCl salt, background statement; cited from earlier work
[9] = target: 5-HT transporter (Homo sapiens, UniProt P31645); conditions: Harvey et al., 2011; cited from earlier work
Chain of 5-HT transporter (P31645 whole entry, species assumed): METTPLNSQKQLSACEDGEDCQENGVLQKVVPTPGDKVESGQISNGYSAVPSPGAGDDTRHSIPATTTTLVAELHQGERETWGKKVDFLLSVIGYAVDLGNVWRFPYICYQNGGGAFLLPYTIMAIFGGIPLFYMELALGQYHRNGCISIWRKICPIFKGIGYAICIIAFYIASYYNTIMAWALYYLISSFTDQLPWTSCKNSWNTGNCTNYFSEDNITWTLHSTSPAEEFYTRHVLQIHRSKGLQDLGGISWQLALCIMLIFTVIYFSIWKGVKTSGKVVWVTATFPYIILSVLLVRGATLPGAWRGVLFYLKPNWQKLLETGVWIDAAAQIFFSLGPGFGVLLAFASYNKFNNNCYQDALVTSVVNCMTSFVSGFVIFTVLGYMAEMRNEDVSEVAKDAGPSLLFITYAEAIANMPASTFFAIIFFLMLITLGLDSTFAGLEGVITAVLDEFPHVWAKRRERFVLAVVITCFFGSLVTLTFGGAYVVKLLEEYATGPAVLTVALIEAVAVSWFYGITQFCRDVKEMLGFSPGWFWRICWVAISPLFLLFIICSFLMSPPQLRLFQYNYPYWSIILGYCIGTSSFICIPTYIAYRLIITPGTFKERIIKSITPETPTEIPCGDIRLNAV

[10] = target: PDE4B (Homo sapiens, UniProt Q07343); conditions: Harvey et al., 2011; cited from earlier work
Chain of PDE4B (Q07343 whole entry, species assumed): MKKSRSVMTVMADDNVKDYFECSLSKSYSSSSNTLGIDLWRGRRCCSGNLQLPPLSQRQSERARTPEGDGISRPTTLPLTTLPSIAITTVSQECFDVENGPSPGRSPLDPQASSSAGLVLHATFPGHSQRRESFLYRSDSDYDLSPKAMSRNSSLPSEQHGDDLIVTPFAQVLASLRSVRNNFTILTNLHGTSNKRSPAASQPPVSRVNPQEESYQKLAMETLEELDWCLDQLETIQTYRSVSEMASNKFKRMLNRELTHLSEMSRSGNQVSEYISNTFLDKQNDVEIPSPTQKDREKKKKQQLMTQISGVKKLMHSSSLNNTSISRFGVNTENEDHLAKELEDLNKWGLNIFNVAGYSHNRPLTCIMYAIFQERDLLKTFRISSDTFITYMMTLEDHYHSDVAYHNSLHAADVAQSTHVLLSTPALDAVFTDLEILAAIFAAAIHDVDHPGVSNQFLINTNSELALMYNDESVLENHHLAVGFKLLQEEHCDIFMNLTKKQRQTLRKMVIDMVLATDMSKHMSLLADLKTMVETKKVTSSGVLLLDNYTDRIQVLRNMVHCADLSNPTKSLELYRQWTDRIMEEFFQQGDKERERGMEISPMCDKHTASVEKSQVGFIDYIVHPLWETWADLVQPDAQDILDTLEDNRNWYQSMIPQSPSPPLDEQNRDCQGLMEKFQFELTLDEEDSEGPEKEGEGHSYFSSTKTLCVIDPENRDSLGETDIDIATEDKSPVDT

[11] = 200 mg/mL, water activity aw 0.2 (methanol/water 99:1)
[12] = 400 mg/mL, water activity aw 0.5 (methanol/water 75:25)
[13] = 1000 mg/mL, water activity aw 0.2 (methanol/water 99:1)
[14] = 1000 mg/mL, water activity aw 0.5 (methanol/water 75:25)
[15] = 1000 mg/mL, water activity aw 0.8 (methanol/water 33:67)
[16] = Target pH 1.2 (chloride buffer)
[17] = Target pH 1.2, ca. 20 mg in 0.1 mL buffer
[18] = Target pH 4.5, ca. 20 mg in 0.1 mL buffer
[19] = Target pH 6.8 (phosphate buffer)
[20] = Target pH 6.8, ca. 20 mg in 0.1 mL buffer
[21] = Ambient light, temperature and humidity, 1 week
[22] = 200 mg/mL, water activity aw 0.8 (methanol/water 33:67)

SMILES	DVS water uptake ([3]; 80% RH, 25° C.)	hygroscopicity ([3]; 25° C.)	HPLC Conc. [6, 16]	Observation [6, 17]	HPLC Conc. ([6]; Target pH 4.5 (acetate buffer))	Observation [6, 18]	HPLC Conc. [6, 19]	Observation [6, 20]	HPLC Purity ([6]; Target pH 1.2, 24 h)	HPLC Purity ([6]; Target pH 4.5, 24 h)	HPLC Purity ([6]; Target pH 6.8, 24 h)	HPLC ([7]; 40° C./75% RH (open), 1 week)	XRPD (pattern number) ([7]; 40° C./75% RH (open), 1 week)	Observation ([7]; 40° C./75% RH (open), 1 week)	HPLC ([7]; 80° C. (closed), 1 week)	XRPD (pattern number) ([7]; 80° C. (closed), 1 week)	Observation ([7]; 80° C. (closed), 1 week)	HPLC [7, 21]	XRPD (pattern number) [7, 21]	Observation [7, 21]	further results
COc1ccc(C23CCC(=O)CC2N(C)CC3)cc1OC.O=S(=O)(O)c1ccccc1 (stereo not drawn) [Besylate Pattern 1, mesembrine besylate]	2.3 wt %	hygroscopic	>172 mg/mL	Clear solution	>140 mg/mL	Clear solution	>97 mg/mL	Clear solution	98.01 % area	98.02 % area	97.62 % area	98.0 % area	1,	Light brown solids (BR8)	96.7 % area	1,	Faint beige solids (BE10)	98.1 % area	1,	Faint beige solids (BE10)	physical stability at 40° C./75% RH (Comments) [1]: physically stable; solution degradation (Comments) [2]: degradation; DVS water uptake ([3]; 90% RH): 13 wt %; solid form by VH-XRPD ([4]; after 17 h at 90% RH): persisted; Observation [5, 11]: Clear solution; Observation [5, 12]: Clear solution; Observation ([5]; 400 mg/mL, water activity aw 0.8 (methanol/water 33:67)): Clear solution; Observation [5, 13]: Clear solution; Observation [5, 14]: Clear solution; Observation [5, 15]: Clear solution; Solubility ([5]; listed as besylate salt): greater than 1000 mg/mL; Solubility ([5]; listed as besylate salt Pattern 1): > 1000 mg/mL; HPLC ([7]; Input): 98.1 % area; XRPD (pattern number) ([7]; Input): 1,; Observation ([7]; Input): Faint beige solids (BE10)
COc1ccc(C23CCC(=O)CC2N(C)CC3)cc1OC.O=C(O)C=CC(=O)O (stereo not drawn) [Fumarate Pattern 1 + 4, mesembrine fumarate]	0.7 wt %	slightly hygroscopic	29.44 mg/mL	Slurry	>24 mg/mL	Clear solution	18.98 mg/mL	Oil	96.31 % area	96.07 % area	96.78 % area	95.6 % area	1/4,	Faint beige solids (BE10	83.4 % area	6,	Light brown solids (BR8)	96.1 % area	1/4,	Faint beige solids (BE10	DVS water uptake ([3]; between 0-20% RH): 2.1 wt %; solid form by VH-XRPD ([4]; at 0% RH): fumarate Pattern 5; Observation [5, 22]: Thick slurry; Observation ([5]; 400 mg/mL, water activity aw 0.2 (methanol/water 99:1)): Thick slurry; Observation [5, 12]: Slurry; HPLC ([7]; Input): 96.6 % area; XRPD (pattern number) ([7]; Input): 1/4,; Observation ([7]; Input): Faint beige solids (BE10)
COc1ccc(C23CCC(=O)CC2N(C)CC3)cc1OC.Cl (stereo not drawn) [Hydrochloride Pattern 1, reference compound]	5.4 wt %	hygroscopic	>105 mg/mL	Clear solution	>146 mg/mL	Clear solution	>122 mg/mL	Clear solution	97.09 % area	93.45 % area	92.87 % area	93.4 % area	1,	Light brown solids (BR8)	92.8 % area	1,	Light brown solids (BR8)	91.5 % area	1,	Faint beige solids (BE10)	physical stability at 40° C./75% RH (Comments) [1]: physically stable; solution degradation (Comments) [2]: degradation; DVS water uptake ([3]; 90% RH): 20.3 wt %; solid form by VH-XRPD ([4]; after 12 h at 90% RH): remained consistent with hydrochloride salt Pattern 1; Observation [5, 11]: Clear solution; Observation ([5]; 200 mg/mL, water activity aw 0.5 (methanol/water 75:25)): Clear solution; Observation [5, 22]: Clear solution; Observation [5, 13]: Clear solution; Observation [5, 14]: Slurry; Observation [5, 15]: Slurry; HPLC ([7]; Input): 90.5 % area; XRPD (pattern number) ([7]; Input): 1,; Observation ([7]; Input): Faint beige solids (BE10); Solubility [8]: poorly soluble at higher concentrations
COc1ccc(C23C=CC(O)CC2N(C)CC3)cc1OC (stereo not drawn) [mesembrenol]	–	–	–	–	–	–	–	–	–	–	–	–	–	–	–	–	–	–	–	–	activity in a 5-HT transporter binding assay [9]: potently active; activity against PDE4B activity [10]: potently active
